Laboratory results as given in patent US10596127B2, “Composition for reducing the frequency of urination, method of making and use thereof” (WELLESLEY PHARMACEUTICALS, LLC, priority 2013, dated 2020).

Legend:
[1] = test system: expression of co-stimulatory molecules by Raw 264 macrophage cells; assay: Flow cytometry of co-stimulatory molecules CD40 and CD80 on macrophages treated with analgesic, with or without LPS; assay type: cell-based, Murine
Procedure: Murine RAW264.7 or J774 macrophage cells (obtained from ATCC) were used in this study. Cells were maintained in a culture medium containing RPMI 1640 supplemented with 10% fetal bovine serum (FBS), 15 mM HEPES, 2 mM L-glutamine, 100 U/ml penicillin, and 100 μg/ml of streptomycin. Cells were cultured at 37° C. in a 5% CO2 atmosphere and split (passages) once a week.
RAW264.7 macrophage cells were seeded in 96-well plates at a cell density of 1.5×10^5 cells per well in 100 μl of the culture medium. […] Briefly, the analgesics were dissolved in FBS-free culture medium (i.e., RPMI 1640 supplemented with 15 mM HEPES, 2 mM L-glutamine, 100 U/ml penicillin, and 100 μg/ml of streptomycin), and diluted to desired concentrations by serial dilution with the same medium. For cells treated with analgesic in the absence of LPS, 50 μl of analgesic solution and 50 μl of FBS-free culture medium were added to each well. For cells treated with analgesic in the presence of LPS, 50 μl of analgesic solution and 50 μl of LPS (from Salmonella typhimurium) in FBS-free culture medium were added to each well. All conditions were tested in duplicates.
After 24 or 48 hours of culture, 150 μl of culture supernatants were collected, spun down for 2 min at 8,000 rpm at 4° C. to remove cells and debris and stored at −70° C. for analysis of cytokine responses by ELISA. The cells were collected and washed by centrifugation (5 min at 1,500 rpm at 4° C.) in 500 μl of Phosphate buffer (PBS). Half of the cells were then snap frozen in liquid nitrogen and stored at −70° C. The remaining cells were stained with fluorescent monoclonal antibodies and analyzed by flow cytometry.
For flow cytometry analysis, macrophages were diluted in 100 μl of FACS buffer (phosphate buffered saline (PBS) with 2% bovine serum albumin (BSA) and 0.01% NaN3) and stained 30 min at 4° C. by addition of FITC-conjugated anti-CD40, PE-conjugated anti-CD80, PE-conjugated anti-CD86 antibody, anti MHC class II (I-A^d) PE (BD Bioscience). Cells were then washed by centrifugation (5 min at 1,500 rpm at 4° C.) in 300 μl of FACS buffer. After a second wash, cells were re-suspended in 200 μl of FACS buffer and the percentage of cells expressing a given marker (single positive), or a combination of markers (double positive) were analyzed with the aid of an Accuri C6 flow cytometer (BD Biosciences).

[2] = test system: COX2 expression by normal human bladder smooth muscle cells; assay: Cell-based ELISA of total COX2 in normal human bladder smooth muscle cells; conditions: for Total COX2 levels (Normalized RFUs) subject 1: mean of duplicates
Procedure: COX2 responses were analyzed by a Cell-Based ELISA using Human/mouse total COX2 immunoassay (R&D Systems), following the instructions of the manufacturer. Briefly, after cells fixation and permeabilization, a mouse anti-total COX2 and a rabbit anti-total GAPDH were added to the wells of the clear-bottom black 96-well cell culture microculture plates. After incubation and washes, an HRP-conjugated anti-mouse IgG and an AP-conjugated anti-rabbit IgG were added to the wells. Following another incubation and set of washes, the HRP- and AP-fluorogenic substrates were added. Finally, a Victor® V multilabel plate reader (PerkinElmer) was used to read the fluorescence emitted at 600 nm (COX2 fluorescence) and 450 nm (GAPDH fluorescence). Results are expressed as relative levels of total COX2 as determined by relative fluorescence unit (RFUs) and normalized to the housekeeping protein GAPDH.
Normal human bladder smooth muscle cells were isolated by enzymatic digestion from macroscopically normal pieces of human bladder. Cells were expended in vitro by culture at 37° C. in a 5% CO2 atmosphere in RPMI 1640 supplemented with 10% fetal bovine serum, 15 mM HEPES, 2 mM L-glutamine, 100 U/ml penicillin, and […] of streptomycin and passage once a week by treatment with trypsin to detach cells followed by reseeding in a new culture flask. The first week of culture, the culture medium was supplemented with 0.5 ng/ml epidermal growth factor, 2 ng/ml fibroblast growth factor, and 5 μg/ml insulin.
[…] When no other effectors were added to the cells, 50 μl of RPMI 1640 without fetal bovine serum were added to the wells to adjust the final volume to 200 μl.
After 24 hours of culture, 150 μl of culture supernatants were collected, spun down for 2 min at 8,000 rpm at 4° C. to remove cells and debris and stored at −70° C. for analysis of Prostaglandin E2 (PGE2) responses by ELISA. Cells were fixed, permeabilized and blocked for detection of COX2 using a fluorogenic substrate. In selected experiment cells were stimulated 12 hours in vitro for analysis of COX2, PGE2 and cytokine responses.
COX2 and PGE2 responses were analyzed as described in Example 3. Cytokine responses were analyzed as described in Example 2.

[3] = adult humans; cited from earlier work
[4] = test system: TNFα secretion by normal human bladder smooth muscle cells; assay: TNFα ELISA of normal human bladder smooth muscle cell supernatants; assay type: cell-based; conditions: for TNFα (pg/ml) Subject 2: LPS alone 4107; for TNFα (pg/ml) Subject 1: LPS alone 5725, mean of duplicates
[5] = test system: IL-6 secretion by normal human bladder smooth muscle cells; assay: IL-6 ELISA of normal human bladder smooth muscle cell supernatants; assay type: cell-based; conditions: for IL-6 (pg/ml) Subject 2: LPS alone 4383; for IL-6 (pg/ml) Subject 1: LPS alone 4838, mean of duplicates
[6] = LPS (10 μg/ml) plus analgesic 5 μM
[7] = LPS (10 μg/ml) plus analgesic 50 μM

For `COc1ccc2cc([C@H](C)C(=O)O)ccc2c1` [Naproxen], the “effect on expression of the co-stimulatory molecules at the highest dose” value ([1]; 5 × 10^6 nM) was “enhance”, the “effect on basal expression of co-stimulatory molecules CD40 and CD80 by macrophages” value ([1]; 5 × 10^5, 5 × 10^4, 5 × 10^3, 5 × 10^2, 50 and 5 nM) was “inhibit” and the “% Positive CD40+CD80+” value ([1]; analgesic alone, 5 nM, negative control 20.6) was 5.2%. The “% Positive CD40+CD80+” value ([1]; analgesic alone, 50 nM, negative control 20.6) was 6.8%, the “% Positive CD40+CD80+” value ([1]; analgesic alone, 500 nM, negative control 20.6) was 7.2% and the “% Positive CD40+CD80+” value ([1]; analgesic alone, 5 × 10^3 nM, negative control 20.6) was 6.9%. For the same compound, the “% Positive CD40+CD80+” value ([1]; analgesic alone, 5 × 10^4 nM, negative control 20.6) was 7.7%, the “% Positive CD40+CD80+” value ([1]; analgesic alone, 5 × 10^5 nM, negative control 20.6) was 9.6% and the “% Positive CD40+CD80+” value ([1]; analgesic alone, 5 × 10^6 nM, negative control 20.6) was 37%. For the same compound, the “% Positive CD40+CD80+” value ([1]; analgesic plus LPS, analgesic 5 nM, LPS 5 ng/ml alone 77.8) was 73%, the “% Positive CD40+CD80+” value ([1]; analgesic plus LPS, analgesic 50 nM, LPS 5 ng/ml alone 77.8) was 72% and the “% Positive CD40+CD80+” value ([1]; analgesic plus LPS, analgesic 500 nM, LPS 5 ng/ml alone 77.8) was 68.8%. For the same compound, the “% Positive CD40+CD80+” value ([1]; analgesic plus LPS, analgesic 5 × 10^3 nM, LPS 5 ng/ml alone 77.8) was 71.0%, the “% Positive CD40+CD80+” value ([1]; analgesic plus LPS, analgesic 5 × 10^4 nM, LPS 5 ng/ml alone 77.8) was 77.1% and the “% Positive CD40+CD80+” value ([1]; analgesic plus LPS, analgesic 5 × 10^5 nM, LPS 5 ng/ml alone 77.8) was 74.1%. For the same compound, the “% Positive CD40+CD80+” value ([1]; analgesic plus LPS, analgesic 5 × 10^6 nM, LPS 5 ng/ml alone 77.8) was 66.0%, the “Total COX2 levels (Normalized RFUs) subject 1” value ([2]; Carbachol 10^−3 M plus analgesic 50 μM, carbachol alone 437, unstimulated 230) was 296 Normalized RFUs and the “Total COX2 levels (Normalized RFUs) subject 2” value ([2]; Carbachol 10^−3 M plus analgesic 50 μM, carbachol alone 462, unstimulated 199) was 354 Normalized RFUs. For the same compound, the “Total COX2 levels (Normalized RFUs) subject 2” value ([2]; LPS (10 μg/ml) plus analgesic 5 μM, LPS alone 633, unstimulated 199) was 501 Normalized RFUs, the “Total COX2 levels (Normalized RFUs) subject 1” value ([2]; LPS (10 μg/ml) plus analgesic 5 μM, LPS alone 672, unstimulated 230) was 458 Normalized RFUs and the “Total COX2 levels (Normalized RFUs) subject 2” value ([2]; LPS (10 μg/ml) plus analgesic 50 μM, LPS alone 633, unstimulated 199) was 458 Normalized RFUs. For the same compound, the “Total COX2 levels (Normalized RFUs) subject 1” value ([2]; LPS (10 μg/ml) plus analgesic 50 μM, LPS alone 672, unstimulated 230) was 409 Normalized RFUs, the “effect on the effect of carbachol and LPS on COX2 levels” value ([2]; LPS-induced responses: analgesic at either 5 μM or 50 μM) was “suppress” and the “Maximum serum levels after oral therapeutic doses” value [3] was at most 60 mg/L. The “TNFα (pg/ml) Subject 2” value [4, 6] was 2215 pg/mL, the “TNFα (pg/ml) Subject 1” value [4, 6] was 2591 pg/mL and the “TNFα (pg/ml) Subject 2” value [4, 7] was 2192 pg/mL. The “TNFα (pg/ml) Subject 1” value [4, 7] was 2427 pg/mL, the “IL-6 (pg/ml) Subject 2” value [5, 6] was 2229 pg/mL and the “IL-6 (pg/ml) Subject 1” value [5, 6] was 2077 pg/mL. The “IL-6 (pg/ml) Subject 2” value [5, 7] was 2028 pg/mL and the “IL-6 (pg/ml) Subject 1” value [5, 7] was 2102 pg/mL.
